In patent US11066447B2, “Aureobasidium derivatives and methods of synthesis” (AureoGen Biosciences, Inc., priority 2016, dated 2021):
In brackets after ≈: the same amount, converted by molar mass. Where two headings read alike, the source gives them in different places. Numbered stars: 1 amine (or outer) side, 2 acyl side, 3 side chain; on linkers, the order of the positions; unused ones are H or OH. Square brackets hold non-standard residues; d marks the D form. Peptide text beside a SMILES is read from it. X11 = CN([C@@H](Cc1cccc(-c2cccc3ncccc23)c1)C(=O)[*:2])[*:1]; X17 = CN([C@@H](Cc1cccc(-c2cnc3ccccc3c2)c1)C(=O)[*:2])[*:1]; X22 = CN([C@@H](Cc1cccc(-c2cncc3ccccc23)c1)C(=O)[*:2])[*:1]; Hmp(2R,3S) = CC[C@H](C)[C@@H](O)C(=O)O; NMeVal(β-OH) = CN[C@H](C(=O)O)C(C)(C)O; NMeV = CN[C@H](C(=O)O)C(C)C

Columns and labels:
[1] = test system: C. albicans MMX 2000 ATCC 10231; test: MIC assay (CLSI microdilution); assay type: cell-based; conditions: Candida albicans, ATCC10231, RPMI plus 0.002% Tween-80; read-out: MIC
[2] = test system: C. neoformans MMX 0634 ATCC 90112; test: MIC assay (CLSI microdilution); assay type: cell-based; conditions: Cryptococcus neoformans, ATCC90112, RPMI plus 0.002% Tween-80; read-out: MIC
[3] = test system: C. parapsilosis MMX 2323 ATCC 22019; test: MIC assay (CLSI microdilution); assay type: cell-based, Candida parapsilosis
Method in brief: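 Broth microdilution MIC testing of Candida parapsilosis ATCC 22019 followed CLSI methods in RPMI-1640, with or without 0.002% Tween-80. Yeast grown 48 hours at 35° C on Sabouraud dextrose agar was suspended to a 0.5 McFarland standard and diluted 1:100 to roughly 0.5-2.5×10^3 CFU/mL. The MIC was the lowest concentration preventing visible growth.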

A. flavus MMX 5948 = test: MIC/MEC assay (CLSI microdilution); assay type: cell-based; conditions: Aspergillus flavus, MMX5948, 48 h
Method in brief: (§1)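 CLSI broth microdilution in RPMI-1640 with 0.002% Tween-80; MMX 5280 was also tested without Tween-80. AbA compounds were two-fold serially diluted in 95% ethanol. Aspergillus spore inoculum was approx. 0.2-2.5×10^4 CFU/mL final.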

A. fumigatus MMX 5944 = test: MIC/MEC assay (CLSI microdilution); assay type: cell-based; conditions: Aspergillus fumigatus, MMX5944, 48 h; for minimal effective concentration: RPMI plus 0.002% Tween-80; for MIC: RPMI plus 0.002% Tween-80, read-out: MIC
Method in brief: as §1

[4] = test system: A. fumigatus MMX 6781 ATCC MYA-4609; test: MIC/MEC assay (CLSI microdilution); assay type: cell-based; conditions: Aspergillus fumigatus; for MIC: 48 h, RPMI plus 0.002% Tween-80, read-out: MIC; for minimal effective concentration: RPMI plus 0.002% Tween-80, 48 hr
Method in brief: as §1

[5] = test system: A. fumigatus MMX 6782 ATCC 13073; test: MIC/MEC assay (CLSI microdilution); assay type: cell-based; conditions: Aspergillus fumigatus, ATCC13073, 48 h
Method in brief: as §1

[6] = test system: A. fumigatus from Aureogen; test: MIC/MEC assay (CLSI microdilution); assay type: cell-based; conditions: Aspergillus fumigatus, 48 h; for minimal effective concentration: RPMI plus 0.002% Tween-80; for MIC: RPMI plus 0.002% Tween-80, read-out: MIC
Method in brief: as §1

[7] = test system: A. niger MMX 0624 ATCC 16888; test: MIC/MEC assay (CLSI microdilution); assay type: cell-based; conditions: Aspergillus niger, ATCC16888, 48 h
Method in brief: as §1

[8] = test system: A. fumigatus MMX 5280 ATCC MYA-3626; test: MIC/MEC assay (CLSI microdilution); assay type: cell-based, Aspergillus fumigatus
Method in brief: as §1

[9] = test system: C. albicans MMX 2000 ATCC 10231; test: MIC assay (CLSI microdilution); assay type: cell-based; conditions: Candida albicans, ATCC10231, RPMI plus 0.002% Tween-80
[10] = ATCC22019, RPMI plus 0.002% Tween-80, read-out: MIC
[11] = ATCC22019, Without Tween-80, read-out: MIC
[12] = RPMI plus 0.002% Tween-80, read-out: MIC
[13] = RPMI plus 0.002% Tween-80, read-out: MEC
[14] = Aspergillus fumigatus, 48 h, RPMI plus 0.002% Tween-80, read-out: MEC
[15] = Aspergillus fumigatus, 48 h, RPMI plus 0.002% Tween-80, read-out: MIC
[16] = Aspergillus fumigatus, 48 h, Without Tween-80, read-out: MEC
[17] = Aspergillus fumigatus, 48 h, Without Tween-80, read-out: MIC
[18] = read-out: MEC, RPMI plus 0.002% Tween-80

| SMILES | MIC [1] [µg/mL] | MIC [2] [µg/mL] | MIC [3, 10] [µg/mL] | MIC [3, 11] [µg/mL] | minimal effective concentration (A. flavus MMX 5948; RPMI plus 0.002% Tween-80) [µg/mL] | MIC (A. flavus MMX 5948; [12]) [µg/mL] | minimal effective concentration (A. fumigatus MMX 5944) [µg/mL] | MIC (A. fumigatus MMX 5944) [µg/mL] | MIC [4] [µg/mL] | minimal effective concentration [4] [µg/mL] | MIC [5, 12] [µg/mL] | minimal effective concentration [6] [µg/mL] | MIC [6] [µg/mL] | minimal effective concentration [7, 13] [µg/mL] | MIC [7, 12] [µg/mL] | minimal effective concentration [8, 14] [µg/mL] | MIC [8, 15] [µg/mL] | minimal effective concentration [8, 16] [µg/mL] | MIC [8, 17] [µg/mL] | further results |
| --- | --- | --- | --- | --- | --- | --- | --- | --- | --- | --- | --- | --- | --- | --- | --- | --- | --- | --- | --- | --- |
| CC[C@H](C)[C@@H]1NC(=O)[C@@H]2CCCN2C(=O)[C@H](Cc2cccc(-c3cnc4ccccc4c3)c2)N(C)C(=O)[C@H](Cc2ccccc2)NC(=O)[C@H](C(C)C)N(C)C(=O)[C@@H]([C@@H](C)CC)OC(=O)[C@H](C(C)(C)O)N(C)C(=O)[C@H](CC(C)C)NC(=O)[C@H](C(C)C)N(C)C1=O [Compound 27] (cyclo(F[X17]PI[NMeV]L[NMeVal(β-OH)][Hmp(2R,3S)][NMeV])) | 0.015 | 0.12 | 0.12 | 1 (≈ 0.814 µM) | 0.12 | 0.5 | > 64 | > 64 | > 64 | > 64 | > 64 | > 64 | > 64 | 0.06 | 0.06 | > 64 | > 64 | > 64 | > 64 | minimal effective concentration [5, 13]: > 64 µg/mL |
| CC[C@H](C)[C@@H]1NC(=O)[C@@H]2CCCN2C(=O)[C@H](Cc2cccc(-c3cccc4ncccc34)c2)N(C)C(=O)[C@H](Cc2ccccc2)NC(=O)[C@H](C(C)C)N(C)C(=O)[C@@H]([C@@H](C)CC)OC(=O)[C@H](C(C)(C)O)N(C)C(=O)[C@H](CC(C)C)NC(=O)[C@H](C(C)C)N(C)C1=O [Compound 28] (cyclo(F[X11]PI[NMeV]L[NMeVal(β-OH)][Hmp(2R,3S)][NMeV])) |  |  |  |  |  |  |  |  |  |  |  |  |  |  |  |  |  |  |  | MIC ([3]; ATCC22019, RPMI plus 0.002% Tween-80): 0.06 µg/mL; MIC ([3]; ATCC22019, Without Tween-80): 0.5 µg/mL (≈ 0.407 µM); MIC (A. flavus MMX 5948; RPMI plus 0.002% Tween-80): > 64 µg/mL; MIC ([5]; RPMI plus 0.002% Tween-80): > 64 µg/mL; minimal effective concentration [5, 18]: > 64 µg/mL; MIC ([7]; RPMI plus 0.002% Tween-80): 0.12 µg/mL; minimal effective concentration [7, 18]: 0.12 µg/mL; minimal effective concentration ([8]; Aspergillus fumigatus, 48 h, read-out: MEC, RPMI plus 0.002% Tween-80): > 64 µg/mL; minimal effective concentration ([8]; Aspergillus fumigatus, 48 h, read-out: MEC, Without Tween-80): > 64 µg/mL; MIC ([8]; Without Tween-80, 48 hr): >64/>64 μg/mL; MIC [9]: 0.015 µg/mL |
| CC[C@H](C)[C@@H]1NC(=O)[C@@H]2CCCN2C(=O)[C@H](Cc2cccc(-c3cncc4ccccc34)c2)N(C)C(=O)[C@H](Cc2ccccc2)NC(=O)[C@H](C(C)C)N(C)C(=O)[C@@H]([C@@H](C)CC)OC(=O)[C@H](C(C)(C)O)N(C)C(=O)[C@H](CC(C)C)NC(=O)[C@H](C(C)C)N(C)C1=O [Compound 29] (cyclo(F[X22]PI[NMeV]L[NMeVal(β-OH)][Hmp(2R,3S)][NMeV])) | 0.008 | 0.06 | 0.06 | 1 (≈ 0.814 µM) | > 64 | > 64 | > 64 | > 64 | > 64 | > 64 | > 64 | > 64 | > 64 | 0.12 | 0.12 | > 64 | > 64 | > 64 | > 64 |  |
